Experimental data from patent US9522884B2, “Compositions and methods for the treatment of metabolic disorders” (CELLIXBIO PRIVATE LIMITED, priority 2012, dated 2016).

Tests used:
STZ-diabetic rats = test: Prevention of arterial stiffening in diabetes: STZ-diabetic rats treated 8 weeks via drinking water; type: in vivo, Male Wistar rats; conditions: STZ-diabetic rats (DM), 1 g·L-1 in drinking water, n = 12, mean ± SEM
Protocol: (§1) Diabetes was induced in rats by a single tail vein injection with 55 mg·kg-1 steptozotocin (STZ). After induction of hyperglycaemia, animals were treated for 8 weeks with pyridoxamine (1 g·L-1 in drinking water) and Formula-I (1-2) (1 g·L-1 in drinking water) were compared with the age-matched untreated diabetic controls. Pulse wave reflection along the vasculature was derived using the impulse response function of the filtered aortic input impedance spectra.
(§2) Male Wistar rats at 2 months were randomly divided into six groups (n=12 in each group) as follows: (i) normal controls (NC); (ii) STZ-diabetic rats (DM); (iii) NC treated with PM (NC+PM); (iv) NC treated with Formula-I (1-2) (NC+Formula-I (1-2)); (v) DM treated with PM (DM+PM); and (vi) DM treated with Formula-I (1-2) (DM+Formula-I (1-2)). Diabetes was induced in animals by a single tail vein injection with 55 mg·kg-1 STZ in 0.1 M citrate buffer (pH 4.5). After confirmation of the development of hyperglycaemia (2 days later) by blood glucose determination using a sure step Test Strip, rats were randomly allocated into a vehicle-treated diabetic group, and a treatment group receiving PM in drinking water of 1 g·L-1 and Formula-I (1-2) in drinking water of 1 g·L-1. Animals were studied 8 weeks after exposure to PM to determine its effects on the pulsatile nature of blood flows in the diabetic arteries.
(§3) Effects of Diabetes and Pyridoxamine and Formula-I (1-2) on Blood Glucose Level, Body Weight, Left Ventricular Weight and Aortic Pressure Profile in Male Wistar Rats: […]

[1] = tested on: normal controls (NC) rats; test: Normal control rats treated 8 weeks via drinking water (same study); type: in vivo, Male Wistar rats; conditions: 1 g·L-1 in drinking water, n = 12, mean ± SEM
Protocol: as §1, §2, §3

Row | SMILES | BW (body weight) (STZ-diabetic rats) | Glucose (STZ-diabetic rats) | LVW (left ventricular weight) (STZ-diabetic rats) | LVW/BW (STZ-diabetic rats) | Pd (diastolic aortic pressure) (STZ-diabetic rats) | Pm (mean aortic pressure) (STZ-diabetic rats) | Ps (systolic aortic pressure) (STZ-diabetic rats) | BW (body weight) [1] | Glucose [1] | LVW (left ventricular weight) [1] | LVW/BW [1] | Pd (diastolic aortic pressure) [1] | Pm (mean aortic pressure) [1] | Ps (systolic aortic pressure) [1]
1 | CC/C=C\C/C=C\C/C=C\C/C=C\C/C=C\CCCC(=O)OC(C)OC(=O)NCc1c(CO)cnc(C)c1O (stereo not shown) [Formula 1(1-2)] | 299.8 ± 14.9 g | 4.128 ± 0.189 mg/mL | 0.599 ± 0.0349 g | 1.989 ± 0.034 mg/g | 72.5 ± 1.98 mmHg | 88.9 ± 1.96 mmHg | 102.7 ± 1.098 mmHg | 418.0 ± 13.8 g | 1.051 ± 0.014 mg/mL | 0.789 ± 0.016 g | 1.69 ± 0.04 mg/g | 76.7 ± 4.10 mmHg | 91.4 ± 3.7 mmHg | 103.1 ± 2.5 mmHg
2 | Cc1ncc(CO)c(CN)c1O [PM, pyridoxamine] | 296.3 ± 16.4 g | 4.305 ± 0.209 mg/mL | 0.609 ± 0.029 g | 2.07 ± 0.04 mg/g | 73.2 ± 2.1 mmHg | 89.9 ± 2.0 mmHg | 103.3 ± 2.0 mmHg | 420.0 ± 11.5 g | 1.004 ± 0.032 mg/mL | 0.722 ± 0.023 g | 1.72 ± 0.03 mg/g | 77.6 ± 3.0 mmHg | 92.5 ± 2.7 mmHg | 106.0 ± 2.5 mmHg
